The text below walks through data of patent US4091006A, “Esters of 3-hydroxyindone compounds” (priority 1975, dated 1978).

The test system of experiment [1] is Perennial rye grass, crabgrass, red root pigweed, mustard. The experiment in a line: Preliminary Herbicide Seed Germination Test. The settings on record: each rated 1 (no injury) to 5 (no seedlings emerged).
For experiment [2], the system named is egg of the two-spotted mite. The experiment in a line: Mite Ovicide Test. The arrangement: key to Mite Ova rating: 1: no mortality; 3: an approximately 50% mortality; 5: 100% mortality. The settings on record: spray on eggs, 4 days. Format: in vivo, Tetranychus urticae (Koch). An excerpt: (§1) The test procedures were as follows:
The plants were allowed to dry thoroughly.
(§2) Compositions were rated on the basis of percent kill with a rating of 1 indicating no mortality; 3 signifying an approximately 50% mortality and 5 indicating 100% mortality at the indicated dosage.

The subject of experiment [3] is adults and nymphal stages of the two-spotted mite. The experiment in a line: Mite Foliage Spray Test. It is filed as in vivo, Tetranychus urticae (Koch). The arrangement: key: 1: no mortality; 3: an approximately 50% mortality; 5: 100% mortality. The settings on record: 4 days.
Text: as §1, §2

[4] abbreviates: rating/maximum 40: 100 and 1000 ppm, four species, 10-12 days.
Setting [5] is: rating/maximum 20: 100 ppm only, four species.
The mark [6] stands for this setting: rating/maximum 15: 100 ppm only, crabgrass omitted.

“2-(2',6'-Dichlorophenyl)-4(7)-methyl-3-(pivaloxyloxy)indone”: the “Herbicide (total preemergence rating)” value in experiment [1] (setting [4]) is given as 20/40. In addition, in experiment [2], the “Mite Ova rating” value was 3 (an approximately 50% mortality). Further, in experiment [3], the “Mite Adult rating” value came to 1.
The like results for “2-(2',6'-Dichlorophenyl)-5(6)-methyl-3-(pivaloyloxy)indone” were, in that order, 24/40, 5 (100% mortality) and 5 (100% mortality).
As to “2-(2'-Methoxyphenyl)-3-(neodecanoyloxy)indone”, in experiment [1] (setting [5]), the “Herbicide (total preemergence rating)” value is listed as 4/20. Further, in experiment [2], the “Mite Ova rating” value was 1. The “Mite Adult rating” value in experiment [3] turned out to be 1.
Turning to “3-(Acetoxy)-4(7)-methyl-2-(2',6'-dichlorophenyl)indone”, the “Herbicide (total preemergence rating)” value in experiment [1] (setting [4]) is given as 37/40. The “Mite Ova rating” value in experiment [2] is listed as 5 (100% mortality). Further, in experiment [3], the “Mite Adult rating” value was 5 (100% mortality).
For `CC(C)c1cccc(C(C)C)c1C1=C(OC(=O)C(C)(C)C)c2ccccc2C1=O` [2-(2'6'-diisopropyl)phenyl-3-pivaloyloxyindone], the “Herbicide (total preemergence rating)” value in experiment [1] (setting [6]) is 3/15. For the same molecule, the “Mite Ova rating” value in experiment [2] is recorded as 1. Besides, the “Mite Adult rating” value in experiment [3] came out at 1.
For `Cc1cc(C)c(C2=C(OC(=O)COc3ccc(Cl)cc3Cl)c3ccccc3C2=O)c(C)c1` [2-(2',4',6'-Trimethylphenyl)-3-(2,4-dichlorophenoxyacetoxy)indone], in experiment [1] (setting [5]), the “Herbicide (total preemergence rating)” value is 20/20. Further, in experiment [2], the “Mite Ova rating” value is given as 5 (100% mortality). In addition, the “Mite Adult rating” value in experiment [3] is 5 (100% mortality).
In the case of `CNC(=O)N(C)C(=O)OC1=C(c2c(C)cc(C)cc2C)C(=O)c2ccccc21` [2-(2',4',6'-Trimethylphenyl)-3-(2,4-dimethylallophanoyloxy)indone], the “Herbicide (total preemergence rating)” value in experiment [1] (setting [5]) is on record as 16/20. Further, the “Mite Ova rating” value in experiment [2] is reported as 5 (100% mortality). The “Mite Adult rating” value in experiment [3] is recorded as 1.
The like results for `Cc1cc(C)c(C2=C(OC(=O)c3ccco3)c3ccccc3C2=O)c(C)c1` [2-(2',4',6'-Trimethylphenyl)-3-(2-furoyloxy)indone] were, in that order, 17/20, 5 (100% mortality) and 5 (100% mortality).
The like results for `Cc1cc(C)c(C2=C(OC(=O)c3cccs3)c3ccccc3C2=O)c(C)c1` [2-(2',4',6'-Trimethylphenyl)-3-(2-thenoyloxy)indone] were, in that order, 18/20, 5 (100% mortality) and 5 (100% mortality).
The like results for `Cc1cc(C)c(C2=C(OC(=O)c3cccnc3)c3ccccc3C2=O)c(C)c1` [2-(2',4',6'-Trimethylphenyl)-3-(3-pyridinecarbonyloxy)indone] were, in that order, 18/20, 5 (100% mortality) and 5 (100% mortality).
As for `Cc1cc(C)c(C2=C(OC(=O)N3CCOCC3)c3ccccc3C2=O)c(C)c1` [2-(2',4',6'-Trimethylphenyl)-3-(4-(morpholino)carbonyloxy)indone], the “Herbicide (total preemergence rating)” value in experiment [1] (setting [5]) was 4/20. In addition, the “Mite Ova rating” value in experiment [2] was 5 (100% mortality). Also, the “Mite Adult rating” value in experiment [3] was 3 (an approximately 50% mortality).
On to `Cc1cc(C)c(C2=C(OC(=O)Oc3ccc(Cl)cc3)c3ccccc3C2=O)c(C)c1` [2-(2',4',6'-Trimethylphenyl)-3-(4-chlorophenyloxycarbonyloxy)indone], for which the “Herbicide (total preemergence rating)” value in experiment [1] (setting [5]) is recorded as 19/20. For the same molecule, the “Mite Ova rating” value in experiment [2] was 5 (100% mortality). Further, the “Mite Adult rating” value in experiment [3] is 5 (100% mortality).
In the case of `CCCCN(CCCC)C(=O)OC1=C(c2c(C)cc(C)cc2C)C(=O)c2ccccc21` [2-(2',4',6'-Trimethylphenyl)-3-(N,N-di(butyl)carbamoyloxy)indone], the “Herbicide (total preemergence rating)” value in experiment [1] (setting [5]) is given as 10/20. Moreover, in experiment [2], the “Mite Ova rating” value worked out at 1. The “Mite Adult rating” value in experiment [3] was 3 (an approximately 50% mortality).
In the case of `Cc1cc(C)c(NC(=O)OC2=C(c3c(C)cc(C)cc3C)C(=O)c3ccccc32)c(C)c1` [2-(2',4',6'-Trimethylphenyl)-3-(N-(2,4,6-Trimethylphenyl)-carbamoyloxy)indone], the “Herbicide (total preemergence rating)” value in experiment [1] (setting [5]) was 4/20. In addition, the “Mite Ova rating” value in experiment [2] is listed as 5 (100% mortality). The “Mite Adult rating” value in experiment [3] was 5 (100% mortality).
Take `Cc1cc(C)c(C2=C(OC(=O)NC(C)(C)C)c3ccccc3C2=O)c(C)c1` [2-(2',4',6'-Trimethylphenyl)-3-(N-(t-butyl)carbamoyloxy)indone]: the “Herbicide (total preemergence rating)” value in experiment [1] (setting [5]) is listed as 15/20. The “Mite Ova rating” value in experiment [2] was 5 (100% mortality). Moreover, in experiment [3], the “Mite Adult rating” value is given as 5 (100% mortality).
As for `CCCCN(C)C(=O)OC1=C(c2c(C)cc(C)cc2C)C(=O)c2ccccc21` [2-(2',4',6'-Trimethylphenyl)-3-(N-butyl-N-methylcarbamoyloxy)indone], in experiment [1] (setting [5]), the “Herbicide (total preemergence rating)” value was 4/20. Also, the “Mite Ova rating” value in experiment [2] is reported as 1. For the same molecule, in experiment [3], the “Mite Adult rating” value was 1.
As to `Cc1cc(C)c(C2=C(OC(=O)N(C)C3CCCCC3)c3ccccc3C2=O)c(C)c1` [2-(2',4',6'-Trimethylphenyl)-3-(N-cyclohexyl-N-methylcarbamoyloxy)indone], the “Herbicide (total preemergence rating)” value in experiment [1] (setting [5]) was 16/20. The “Mite Ova rating” value in experiment [2] is given as 5 (100% mortality). In addition, the “Mite Adult rating” value in experiment [3] is 5 (100% mortality).
Turning to `Cc1cc(C)c(C2=C(OC(=O)N(C)c3ccccc3)c3ccccc3C2=O)c(C)c1` [2-(2',4',6'-Trimethylphenyl)-3-(N-methyl-N-phenylcarbamoyloxy)indone], the “Herbicide (total preemergence rating)” value in experiment [1] (setting [5]) was 10/20. Further, the “Mite Ova rating” value in experiment [2] is given as 3 (an approximately 50% mortality). Moreover, the “Mite Adult rating” value in experiment [3] came to 1.
On to `CCCC(=O)OC1=C(c2c(C)cc(C)cc2C)C(=O)c2ccccc21` [2-(2',4',6'-Trimethylphenyl)-3-(butyryloxy)indone], for which, in experiment [1] (setting [6]), the “Herbicide (total preemergence rating)” value was 15/15. Besides, the “Mite Ova rating” value in experiment [2] is on record as 5 (100% mortality). In addition, in experiment [3], the “Mite Adult rating” value is recorded as 5 (100% mortality).
`Cc1cc(C)c(C2=C(OC(=O)Cl)c3ccccc3C2=O)c(C)c1` [2-(2',4',6'-Trimethylphenyl)-3-(chlorocarbonyloxy)indone]: the “Herbicide (total preemergence rating)” value in experiment [1] (setting [5]) is recorded as 13/20. The “Mite Ova rating” value in experiment [2] was 5 (100% mortality). Besides, the “Mite Adult rating” value in experiment [3] is listed as 5 (100% mortality).
Regarding `Cc1cc(C)c(C2=C(OC(=O)N(C)C)c3ccccc3C2=O)c(C)c1` [2-(2',4',6'-Trimethylphenyl)-3-(dimethylcarbamoyloxy)indone], the “Herbicide (total preemergence rating)” value in experiment [1] (setting [5]) was 14/20. In addition, the “Mite Ova rating” value in experiment [2] is recorded as 5 (100% mortality). In experiment [3], the “Mite Adult rating” value was 3 (an approximately 50% mortality).
The corresponding values for `CCCCCCCCCCCC(=O)OC1=C(c2c(C)cc(C)cc2C)C(=O)c2ccccc21` [2-(2',4',6'-Trimethylphenyl)-3-(dodecanoyloxy)indone] are 17/20, 5 (100% mortality) and 5 (100% mortality).
On to `CSCC(=O)OC1=C(c2c(C)cc(C)cc2C)C(=O)c2ccccc21` [2-(2',4',6'-Trimethylphenyl)-3-(methylthioacetoxy)indone], for which the “Herbicide (total preemergence rating)” value in experiment [1] (setting [5]) is 19/20. For the same molecule, in experiment [2], the “Mite Ova rating” value is recorded as 5 (100% mortality). The “Mite Adult rating” value in experiment [3] is listed as 5 (100% mortality).
In the case of `CCCCCCCCCCCCCCCCCCOC(=O)OC1=C(c2c(C)cc(C)cc2C)C(=O)c2ccccc21` [2-(2',4',6'-Trimethylphenyl)-3-(octadecyloxycarbonyloxy)indone], the “Herbicide (total preemergence rating)” value in experiment [1] (setting [6]) is on record as 13/15. Also, the “Mite Ova rating” value in experiment [2] was 5 (100% mortality). In addition, the “Mite Adult rating” value in experiment [3] is reported as 5 (100% mortality).
For the molecule `CCCCCCCCOC(=O)OC1=C(c2c(C)cc(C)cc2C)C(=O)c2ccccc21` [2-(2',4',6'-Trimethylphenyl)-3-(octyloxycarbonyloxy)indone], the “Herbicide (total preemergence rating)” value in experiment [1] (setting [5]) is listed as 16/20. Moreover, the “Mite Ova rating” value in experiment [2] was 5 (100% mortality). Also, the “Mite Adult rating” value in experiment [3] is on record as 5 (100% mortality).
With `CCCCC(=O)OC1=C(c2c(C)cc(C)cc2C)C(=O)c2ccccc21` [2-(2',4',6'-Trimethylphenyl)-3-(pentanoyloxy)indone], the “Herbicide (total preemergence rating)” value in experiment [1] (setting [6]) is 15/15. In experiment [2], the “Mite Ova rating” value was 5 (100% mortality). Besides, the “Mite Adult rating” value in experiment [3] is recorded as 5 (100% mortality).
For the molecule `Cc1cc(C)c(C2=C(OC(=O)Cc3ccccc3)c3ccccc3C2=O)c(C)c1` [2-(2',4',6'-Trimethylphenyl)-3-(phenylacetoxy)indone], the “Herbicide (total preemergence rating)” value in experiment [1] (setting [5]) is 19/20. For the same molecule, the “Mite Ova rating” value in experiment [2] was 5 (100% mortality). Further, in experiment [3], the “Mite Adult rating” value was 5 (100% mortality).
In the case of `Cc1cc(C)c(C2=C(OC(=O)N3CCCCC3)c3ccccc3C2=O)c(C)c1` [2-(2',4',6'-Trimethylphenyl)-3-(piperdinocarbonyloxy)indone], the “Herbicide (total preemergence rating)” value in experiment [1] (setting [5]) is listed as 4/20. Also, in experiment [2], the “Mite Ova rating” value was 3 (an approximately 50% mortality). Further, the “Mite Adult rating” value in experiment [3] was determined as 1.
As to `CC(C)c1ccccc1C1=C(OC(=O)C(C)(C)C)c2ccccc2C1=O` [2-(2'-isopropylphenyl)-3-pivaloyloxyindone], in experiment [1] (setting [5]), the “Herbicide (total preemergence rating)” value is 4/20. The “Mite Adult rating” value in experiment [3] amounted to 1.
